“Also recorded” adds a separate entry of the source. Read-outs that look alike come from different tables or passages of the source. Each block holds one compound with its values, some of them ahead of it.
Key:
A549 cells [1] = experiment: Anti-tumor effect with thermal neutron irradiation (colony formation assay); type: cell-based, human; conditions: A549, 30 μM for 24 h, thermal neutrons 0–45 min, colony formation after 7 days
Protocol: BNCT experiments using A549 cells in the presence of the aforementioned B-containing drugs (^10B/^11B and ^10B-enriched compounds) were conducted at the Institute for Integrated Radiation and Nuclear Science, Kyoto University (KURNS). As shown in Scheme 12, A549 cells were incubated with the boron compounds (30 μM) for 24 h and suspensions (5 × 10^4 cells/mL) of these cells were irradiated with thermal neutrons [average thermal neutron flux: (1.5 ± 0.1) × 10^9 n/cm^2·s] at room temperature for various times (0, 15, 30, and 45 min). The irradiated cells were seeded on the 12 well plate (3 × 10^3 cells/well), incubated for 7 days, fixed with EtOH, and stained with crystal violet to produce visualizable images (Figure S5 in the Supporting Information). The surviving fractions were calculated as the stained colony area using the “ImageJ-plugin Colony Area”[43] software and normalized by comparing the results with those for non-irradiated cell samples (Figure 6).
A549 cells (5 × 10^5 cells/well) were seeded on 6-well plates (TrueLine, USA) and incubated in cell culture medium at 37 °C under 5% CO2 for 1 day. After removing the cell culture medium, the cells were washed gently with PBS. […] The thermal neutron flux (1.5 × 10^9 n/cm^2·s) was measured by two gold foils which were attached to the surface of the 1.5 mL tube. […]

IMR-90 cells = experiment: MTT cytotoxicity assay, IMR-90 cells; type: cell-based; conditions: 0–200 μM, treatment for 24 h, normal human fibroblast
Protocol: (§1) HeLa S3, A549, and IMR-90 cells (1 × 10^4 cells/well) were seeded on 96-well plates (Watson) in cell culture medium. […] After incubation for 4 h, a formazan lysis solution (10% sodium dodecyl sulfate in 0.01 N HCl aq) (100 μL) was added and the resulting solution was incubated under same conditions overnight. The absorbance at λ = 570 nm was measured with a microplate reader (Bio-Rad).

A549 cells [2] = experiment: MTT cytotoxicity assay, A549 cells; type: cell-based, human; conditions: read-out: IC50 A549
Protocol: as §1

HeLa S3 cells [3] = experiment: MTT cytotoxicity assay, HeLa S3 cells; type: cell-based, human; conditions: treatment for 24 h
Protocol: as §1

[4] = design: method as in earlier work; conditions: aqueous solution at 25 °C, ref 24−26; cited from earlier work
[5] = Hydrolysis of the C–B bond observed by ^11B-NMR; type: physicochemical
Text: The Zn^2+ complex of the o-form 7 was not obtained due to the carbon–boron bond cleavage that occurred upon complexation with Zn^2+, as previously described.[20]

[6] = design: method as in PMID 32192025; conditions: aqueous solution at 25 °C; cited from earlier work
[7] = test system: double-stranded calf-thymus DNA (ctDNA); experiment: Thermal denaturation (melting temperature) of ctDNA; type: binding; conditions: pH 7.4; for Tm of ctDNA: without additive 66
Protocol: Thermal denaturation experiments of ctDNA (50 μM in phosphate) in 10 mM HEPES buffer (pH 7.4) with I = 0.02 (NaNO3) were performed on a JASCO V-550 UV/vis spectrophotometer (JASCO, Tokyo, Japan) equipped with a thermoelectric temperature controller (±0.5 °C), a stirring unit, and a 10 mm quartz cuvette. All aqueous solutions were made with purified water. The concentration of ctDNA was determined by UV absorption spectroscopy based on its molar extinction coefficient at 253 nm (ε253 = 6.6 × 10^3).[31d],[45] […] The Tm value was graphically determined from the spectral data, and the ΔTm value for each condition was calculated from the results in the presence and absence of additives.

HeLa S3 cells [8] = experiment: Effect of inhibitors on intracellular uptake, HeLa S3 cells; type: cell-based, human; conditions: HeLa S3, 30 μM, 37 °C, 1 h
Protocol: Data represent the mean ± SD of at least three replicates.
HeLa S3 and A549 cells (5 × 10^5 cells/well) were seeded on 6-well plates (TrueLine, USA) and incubated in cell culture medium at 37 °C under 5% CO2 for 2 days (n = 4). […] To count the number of cells after treatment with the boron compounds, the cells (n = 1) were washed with PBS, detached by trypsin, and counted with a hemocytometer. For measurement of boron uptake, the cells (n = 3) were washed with PBS (1 mL ×3) and digested with 60% HNO3 aq (0.5 mL) at room temperature for 24 h, which were transferred to 15 mL centrifuge tubes with Milli-Q water (3.5 mL). These tubes were centrifuged at 3000 rpm and 4 °C for 10 min and then sample solutions were filtered. The concentration of boron atoms was determined by ICP–MS (NexION300S, PerkinElmer, Waltham, Massachusetts, USA).

[9] = Homo sapiens, HeLa S3, 0–200 μM

Compound: c1cc(C2OC3(CCCCC3)C3(CCCCC3)O2)ccc1CN1CCNCCNCCNCCNCC1 [^10B-17a, 1-[4-(13,15-Dioxa-15-boradispiro[5.0.5.3]pentadec-14-yl)phenyl]methyl-1,4,7,10,13-pentaazacyclopentadecane]
BNCT effect (cytotoxic activity after thermal neutron irradiation, surviving fraction) (A549 cells [1]): higher than that for 1 (^10B-BSH) and 2 (^10B-BPA); also recorded: higher BNCT effect than ^10B-19b and ^10B-20a

Compound: O=C(O)C(F)(F)F.OB(O)c1ccc(CN2CCNCCNCC2)cc1 [12a, 1-[(4-Boronopheny)methyl]-1,4,7-triazacyclononane]
IC50 (IMR-90 cells; Homo sapiens, IMR-90, 24 h): > 200 µM
IC50 (A549 cells [2]; Homo sapiens, A549, 24 h): > 200 µM
IC50 (HeLa S3 cells [3]; [9]): > 200 µM
melting point: 138 to 141 °C

melting point: 65 to 67 °C
Compound: c1cc(B2OC3(CCCCC3)C3(CCCCC3)O2)ccc1CN1CCNCCNCC1 [15a]

Compound: C1CNCCNCCNCCN1 [compound 10, 1,4,7,10-tetraazacyclododecane]
pKa1 [4]: less than 2
pKa2 [4]: less than 2

half-life of C–B bond hydrolysis [5]: ~24 h
Compound: [Zn+2].c1ccc(B2OC3(CCCCC3)C3(CCCCC3)O2)c(CN2CCNCCNCCNCCNCC2)c1 [20c]

Compound: C1CNCCNCCNCCNCCN1 [compound 11, 1,4,7,10,13-pentaazacyclopentadecane]
pKa1 [4]: less than 2
pKa2 [4]: less than 2

Compound: C1CNCCNCCN1.[Zn+2] [compound 31]
log KZnL [6]: 11.3

melting point: 46 to 48 °C
Compound: c1cc(CN2CCNCCNCCNCC2)cc(B2OC3(CCCCC3)C3(CCCCC3)O2)c1 [16b]

Compound: O=C(O)C(F)(F)F.OB(O)c1ccc(CN2CCNCCNCCNCC2)cc1 [13a, 1-[(4-Boronopheny)methyl]-1,4,7,10-tetraazacyclododecane]
IC50 (IMR-90 cells; Homo sapiens, IMR-90, 24 h): > 200 µM
IC50 (A549 cells [2]; Homo sapiens, A549, 24 h): > 200 µM
IC50 (HeLa S3 cells [3]; [9]): > 200 µM
melting point: 172 to 175 °C

Compound: C1CNCCNCCN1 [compound 9, 1,4,7-triazacyclononane]
pKa1 [4]: less than 2

Compound: NCCCCNCCCN [compound 3, spermidine]
ΔTm of ctDNA ([7]; r = 0.1, [ctDNA(P)] = 50 μM): +7 °C
Tm of ctDNA ([7]; r = 0.1, [ctDNA(P)] = 50 μM): 73 °C
ΔTm of ctDNA ([7]; r = 0.2, [ctDNA(P)] = 50 μM): +12 °C
Tm of ctDNA ([7]; r = 0.2, [ctDNA(P)] = 50 μM): 78 °C

melting point: 57 to 58 °C
Compound: c1cc(CN2CCNCCNCC2)cc(B2OC3(CCCCC3)C3(CCCCC3)O2)c1 [15b]

melting point: 43 to 44 °C
Compound: c1cc(B2OC3(CCCCC3)C3(CCCCC3)O2)ccc1CN1CCNCCNCCNCCNCC1 [17a]

relative uptake in the presence of MβCD (HeLa S3 cells [8]; 1.5 mM of MβCD): weak inhibition
relative uptake in the presence of amiloride (HeLa S3 cells [8]; 2 mM of amiloride): increased intracellular uptake
Compound: N[C@@H](Cc1ccc([10B](O)O)cc1)C(=O)O [compound 2, L-4-boronophenylalanine, reference compound]
IC50 (IMR-90 cells; Homo sapiens, IMR-90, 24 h): > 200 µM
IC50 (A549 cells [2]; Homo sapiens, A549, 24 h, MTT, 0–200 μM, treatment for 24 h): > 200 µM
IC50 (HeLa S3 cells [3]; [9]): > 200 µM

Compound: O=C(O)C(F)(F)F.OB(O)c1ccc(CN2CCNCCNCCNCCNCC2)cc1 [14a, 1-[(4-Boronopheny)methyl]-1,4,7,10,13-pentaazacyclopentadecane]
IC50 (IMR-90 cells; Homo sapiens, IMR-90, 24 h): > 200 µM
IC50 (A549 cells [2]; Homo sapiens, A549, 24 h): > 200 µM
IC50 (HeLa S3 cells [3]; [9]): > 200 µM
melting point: 136 to 137 °C

Compound: sodium mercaptoborate [compound 1, reference compound]
IC50 (IMR-90 cells): > 200 µM
IC50 (A549 cells [2]; MTT, 0–200 μM, treatment for 24 h): > 200 µM
IC50 (HeLa S3 cells [3]; 0–200 μM): > 200 µM

melting point: 78 to 80 °C
Compound: c1ccc(B2OC3(CCCCC3)C3(CCCCC3)O2)c(CN2CCNCCNCCNCCNCC2)c1 [17c, 1-[2-(13,15-Dioxa-15-boradispiro[5.0.5.3]pentadec-14-yl)phenyl]methyl-1,4,7,10,13-pentaazacyclopentadecane]

melting point: 129 to 131 °C
Compound: c1cc(B2OC3(CCCCC3)C3(CCCCC3)O2)ccc1CN1CCNCCNCCNCC1 [16a]

Reference: paper PMC8279495, “Design, Synthesis, and Biological Evaluation of Boron-Containing Macrocyclic Polyamines and Their Zinc(II) Complexes for Boron Neutron Capture Therapy” (Journal of Medicinal Chemistry, 2021)
